# Source: ChEMBL document CHEMBL3758156, “The importance of triazole scaffold in the development of anticonvulsant agents” (Eur J Med Chem, 2016)
# Legend:
# Mus musculus [1] = assay: Anticonvulsant activity in mouse assessed as protection against maximal electroshock-induced seizures at 50 and 100 mg/kg by MES test; assay type: functional
# Mus musculus [2] = assay: Anticonvulsant activity in ip dosed NMRI mouse assessed as protection against PTZ-induced seizures administered 30 mins prior to PTZ injection measured after 30 mins; assay type: functional
# Mus musculus [3] = assay: Anticonvulsant activity in ip dosed Kunming mouse assessed as protection against maximal electroshock-induced seizures […]; assay type: functional
# [4] = Protective index, ratio of TD50 for neurotoxicity in ip dosed Kunming mouse to ED50 for anticonvulsant activity in ip dosed Kunming mouse; assay type: toxicity, organism-based; conditions: in vivo, read-out: PI
# Mus musculus [5] = assay: Anticonvulsant activity in lithium-pilocarpine NMRI mouse model assessed as inhibition of pilocarpine-induced seizures at 10 mg/kg, ip administered 30 mins prior to pilocarpine injection measured for 60 mins; assay type: functional
# [6] = Protective index, ratio of TD50 for neurotoxicity in ip dosed C57BL/6 mouse to ED50 for anticonvulsant activity in ip dosed C57BL/6 mouse; assay type: toxicity, organism-based, C57B/6; conditions: in vivo
# Mus musculus [7] = assay: Anticonvulsant activity in ip dosed C57BL/6 mouse assessed as protection against maximal electroshock-induced seizures measured at 30 mins interval over 4 hrs by MES test; assay type: functional; conditions: C57B/6, ip
# Mus musculus [8] = assay: Anticonvulsant activity in ip dosed Swiss mouse assessed as protection against strychnine-induced tonic extensor after 30 mins; assay type: functional; conditions: 0.5 h
# Mus musculus [9] = assay: Anticonvulsant activity in ip dosed Swiss mouse assessed as protection against PTZ-induced seizures administered 30 mins prior to PTZ challenge; assay type: functional
# Mus musculus [10] = assay: Anticonvulsant activity in ip dosed Swiss mouse assessed as protection against maximal electroshock-induced seizures administered 30 mins prior to electrical stimulation by MES test; assay type: functional
# Mus musculus [11] = assay: Anticonvulsant activity in BALB/c mouse assessed as protection against maximal electroshock-induced seizures at 30 mg/kg, po after 1 hr by MES test; assay type: functional
# Mus musculus [12] = assay: Anticonvulsant activity in po dosed CD1 mouse assessed as protection against strychnine-induced seizures administered 0.5 hr prior to strychnine challenge; assay type: functional
# [13] = Protective index, ratio of TD50 for neurotoxicity in ip dosed Swiss mouse to ED50 for anticonvulsant activity in ip dosed Swiss mouse; assay type: toxicity, organism-based; conditions: in vivo, read-out: Ratio TD50/ED50
# Mus musculus [14] = assay: Anticonvulsant activity in albino Swiss mouse assessed as protection against PTZ-induced seizures at 100 mg/kg, ip administered 2 hrs prior to PTZ injection measured after 60 mins; assay type: functional
# [15] = Neurotoxicity in ip dosed C57BL/6 mouse after 30 mins by rotarod test; assay type: toxicity, organism-based, C57B/6; conditions: in vivo
# Mus musculus [16] = assay: Anticonvulsant activity in NMRI mouse assessed as protection against PTZ-induced seizures at 100 mg/kg, ip administered 30 mins prior to PTZ injection measured for 30 mins; assay type: functional
# Mus musculus [17] = assay: Anticonvulsant activity in NMRI mouse assessed as protection against maximal electroshock-induced seizures at 100 mg/kg, ip by MES test; assay type: functional
# [18] = Protective index, ratio of TD50 for neurotoxicity in ip dosed Swiss mouse by rotarod test to ED50 for anticonvulsant activity in ip dosed Swiss mouse by MES test; assay type: toxicity, organism-based; conditions: in vivo, read-out: Ratio TD50/ED50
# Mus musculus [19] = assay: Anticonvulsant activity in ip dosed Kunming mouse assessed as protection against maximal electroshock-induced seizures after 30 mins by MES test; assay type: functional; conditions: 0.5 h
# [20] = Neurotoxicity in ip dosed Kunming mouse after 15 mins by rotarod test; assay type: toxicity, organism-based; conditions: in vivo
# Mus musculus [21] = assay: Anticonvulsant activity in ip dosed C57BL/6 mouse assessed as protection against maximal electroshock-induced seizures measured at 5 secs intervals over 4 hrs by MES test; assay type: functional; conditions: C57B/6, ip
structure (smiles),measurement,setting,value
CCn1c(S)nnc1-c1sc(-c2ccccc2)nc1C,Activity,Mus musculus [1],80%
Nc1nnc(-c2ccc(Cl)cc2Oc2ccccc2Cl)[nH]1,ED50,Mus musculus [2],12 mg/kg
Clc1ccc(-c2nn3cnnc3s2)cc1,ED50,Mus musculus [3],23.7 mg/kg
same,selectivity ratio,[4],10.8
O=C1c2ccccc2OCC1n1cncn1 (stereo unspecified),inhibition in vivo at 10 mg/kg,Mus musculus [5],49%
CCCCCCOc1ccc2c(c1)c(-c1ccccc1)cc1nncn12,selectivity ratio,[6]; read-out: PI,35.1
same,ED50,Mus musculus [7],6.5 mg/kg
Cc1nn2c(C(N)=O)nnc2cc1Cc1c(Cl)cccc1Cl,ED50,Mus musculus [8],62.9 mg/kg
same,ED50,Mus musculus [9],91.1 mg/kg
same,ED50,Mus musculus [10],12.5 mg/kg
Cn1c(SCc2ccccc2)nnc1-c1ccc(N)cc1,Activity,Mus musculus [11],50%
Cn1c(-c2ccccc2)nnc1S(C)(=O)=O,ED50,Mus musculus [9],55 mg/kg
same,ED50,Mus musculus [12],7.3 mg/kg
Clc1ccc(C2=Nn3cnnc3SC2)cc1,ED50,Mus musculus [3],40.9 mg/kg
same,selectivity ratio,[4],6.5
Fc1ccc(-n2c(-c3cccc(Cl)c3)n[nH]c2=S)cc1,selectivity ratio,[13],3.9
CC1=NNC(=O)/C1=N\Nc1ccc(-c2n[nH]c(=O)n2-c2ccccc2)cc1,Activity,Mus musculus [14],30%
CC1=NNC(=O)/C1=N\Nc1ccc(-c2n[nH]c(=S)n2-c2ccccc2)cc1,Activity,Mus musculus [14],30%
CCCCCCCOc1ccc2c(c1)CCc1nn(C(=O)CC)c(=O)n1-2,selectivity ratio,[6]; read-out: Ratio TD50/ED50,39
same,ED50,Mus musculus [7],8.2 mg/kg
same,TD50 at 0.5 h,[15],318 mg/kg
Clc1ccc(-c2nc(Cn3cncn3)cs2)cc1,Activity,Mus musculus [16],100%
same,Activity,Mus musculus [17],100%
CCCCCCCOc1nn2cnnc2c2ccccc12,selectivity ratio,[18],8
same,ED50,Mus musculus [10],11 mg/kg
Fc1ccccc1COc1ccc2c(c1)SCc1nncn1-2,ED50,Mus musculus [19],17 mg/kg
same,TD50 at 0.25 h,[20],244 mg/kg
Nc1nnc(-c2ccc(Cl)cc2Oc2ccccc2F)[nH]1,ED50,Mus musculus [2],1.4 mg/kg
CCCCCCCOc1cc(-c2ccccc2)nc2ncnn12,ED50,Mus musculus [3],84.9 mg/kg
Clc1ccc(Oc2nn3cnnc3c3ccccc23)cc1,selectivity ratio,[18],5.2
same,ED50,Mus musculus [10],7.1 mg/kg
Fc1cccc(C2Cc3nncn3-c3ccccc32)c1 (stereo unspecified),ED50,Mus musculus [21],22 mg/kg
same,selectivity ratio,[6]; read-out: PI,3.33
same,ED50,Mus musculus [7],27.4 mg/kg
CCCCCCCOc1nncn1-c1ccc(OCCCCCC)cc1,ED50,Mus musculus [19],37.3 mg/kg
same,selectivity ratio,[4],11.3
